# Marks after values point to notes of the source that are not given here.
# Tests used:
# [1] = system: microsporidian cyst (beko cyst), beko disease; test: Prevention test using albendazole (4), two administration methods (1-6); assay type: in vivo, “Mojako” (yellowtail larva)
# Description: A preliminary test was conducted using two administration methods including different administration amounts of albendazole per one operation and different administration intervals. The preliminary test was performed according to the following procedure:
# (§1) Test number: Live 1000 fishes (each initial body weight: 7 g)
# (§2) Administration method: oral administration (feed together with spreading agent)
# (§3) Drug used: albendazole (compound represented by the above-described formula (3))
# Test group 1: 20 mg/kg Bw (20 mg per kg of fish body weight)
# Test group 2: 40 mg/kg Bw (40 mg per kg of fish body weight)
# Test group 1: 6 times/week (administered for 16 weeks)
# Test group 2: 2 times/2 week (administered for 16 weeks)
# A sampling test was carried out according to the same procedure as in the above-described 1-5.
# beko cyst, beko disease = test: Treatment test of Mojako infected with beko disease using albendazole (2-1); assay type: in vivo, “Mojako” (yellowtail larva); settings: 50 mg/kg Bw oral, 6 times/week
# Description: 2-1: Test by Treating “Mojako” Infected with Beko Disease Using Albendazole
# A treatment test was carried out according to the following procedure.
# Test number: Live 1000 fishes (test samples showing apparent infection with beko disease according to visual test at the time of vaccine inoculation were selected and tested)
# as §2, §3
# Administration amount: 50 mg/kg Bw (50 mg per kg of fish body weight)
# (§4) Administration interval: 6 times/week
# Samples of “Mojako” showing irregularities on the body surface with certainty of beko infection in visual test at the time of vaccine inoculation were selected and divided randomly into the control group and the test group.
# microsporidia = settings: culture test, Non-Patent Documents 3 to 7; cited from earlier work
# [2] = system: microsporidian cyst (beko cyst), beko disease; test: Prevention test using albendazole (1) (1-3); assay type: in vivo, “Mojako” (yellowtail larva); settings: 20 mg/kg Bw oral, 6 times/week
# Description: 1-3. Prevention Test Using Albendazole (1)
# (§5) A preliminary test was carried out according to the following procedure:
# as §1, §2, §3
# (§6) Administration amount: 20 mg/kg Bw (20 mg per kg of fish body weight)
# as §4
# A sampling test was carried out according to the following procedure:
# Every two weeks from the start of administration, each 20 fishes of “Mojako” were taken out from each test group (100 fishes of “Mojako” at 8 weeks after the start of administration) and each fish was cut into three pieces. It was then visually tested whether the microsporidian cyst (beko cyst) was found in the pieces. When the beko cyst was observed, it was judged as positive and the test results were accumulated. Regarding the beko cyst that could be confirmed with the naked eye, the number was confirmed and the average infection number per one fish was determined.
# [3] = system: microsporidian cyst (beko cyst), beko disease; test: Prevention test using albendazole (5) in Kanpachi (1-7); assay type: in vivo, “Kanpachi” (great amberjack); settings: 40 mg/kg Bw oral, 6 times/week
# Description: A prevention test against the beko disease by administering albendazole was carried out using “Kanpachi” instead of “Mojako”.
# A preliminary test was performed according to the following procedure:
# Test number: Live 1000 fishes (each initial body weight: 50 g)
# as §2, §3
# Administration amount: 40 mg/kg Bw (40 mg per kg of fish body weight)
# as §4
# Sampling test procedure: same as in the above-described 1-1
# [4] = Weight, deaths and food intake of Mojako in prevention test 1-3; assay type: in vivo, “Mojako” (yellowtail larva); design: Weight of Mojako: unit: g; settings: 20 mg/kg Bw oral, 6 times/week
# Description: as §5, §1, §6, §4
# [5] = system: microsporidian cyst (beko cyst), beko disease; test: Prevention test using albendazole (3), 16 weeks administration (1-5); assay type: in vivo, “Mojako” (yellowtail larva); design: Negative: unit not given here
# Description: Administration of albendazole was continued for 16 weeks and a sampling test was performed at 2 weeks, 4 weeks, 6 weeks, 8 weeks, 12 weeks and 16 weeks after the start of administration in the same procedure as in the above-described 1-3. The sampling test was carried out in the same procedure also at 4 weeks after the termination of administration of albendazole (20 weeks after the start of administration).
# [6] = system: microsporidian cyst (beko cyst), beko disease; test: Prevention test using albendazole (2), reduced dose (1-4); assay type: in vivo, “Mojako” (yellowtail larva); settings: out of 100 fishes at 8 weeks after the start of administration
# Description: Albendazole administration and a sampling test were carried out in the same procedure as in the above-described 1-3 except that the administration amount of albendazole was reduced to 5 or 10 mg/kg Bw. In the 10 mg/kg administration group, the number of (positive) individuals showing generation of the beko cyst was 0 out of 100 fishes of “Mojako” at 8 weeks after the start of administration. When the administration amount of albendazole was reduced to 5 mg/kg Bw, generation of the beko cyst was confirmed in 3 out of 100 fishes of “Mojako” at 8 weeks after the start of administration.
# [7] = 20 mg/kg Bw oral, 6 times/week, 2 Weeks
# [8] = 20 mg/kg Bw oral, 6 times/week, 4 Weeks
# [9] = 20 mg/kg Bw oral, 6 times/week, 6 Weeks
# [10] = 20 mg/kg Bw oral, 6 times/week, 8 Weeks
# [11] = 20 mg/kg Bw oral, 6 times/week, 12 Weeks
# [12] = 20 mg/kg Bw oral, 6 times/week, 16 Weeks
# [13] = 20 Weeks after start = 4 weeks after termination of 16-week administration
smiles,measurement,setting,value
"CCCSc1ccc2nc(NC(=O)OC)[nH]c2c1 [Albendazole, albendazole]",Positive fishes (beko cyst) / fishes sampled,"[1]; Test group 1: 20 mg/kg Bw, 6 times/week for 16 weeks, 8 Weeks, p < 0.001",0/50***
same,Positive fishes (beko cyst) / fishes sampled,"[1]; Test group 1: 20 mg/kg Bw, 6 times/week for 16 weeks, 16 Weeks, p < 0.0001",0/70****
same,Positive fishes (beko cyst) / fishes sampled,"[1]; Test group 1: 20 mg/kg Bw, 6 times/week for 16 weeks, 24 Weeks (8 weeks after termination), 20 mg/kg",16/50
same,Positive fishes (beko cyst) / fishes sampled,"[1]; Test group 1: 20 mg/kg Bw, 6 times/week for 16 weeks, 24 Weeks (8 weeks after termination), listed as albendazole, 20 mg/kg",did not continue until 8 weeks after termination of administration
same,Positive fishes (beko cyst) / fishes sampled,"[1]; Test group 1: 20 mg/kg Bw, 6 times/week for 16 weeks, at administration start time",0/20
same,Positive fishes (beko cyst) / fishes sampled,"[1]; Test group 2: 40 mg/kg Bw, 2 times/2 week for 16 weeks, 8 Weeks, p < 0.001",0/50***
same,Positive fishes (beko cyst) / fishes sampled,"[1]; Test group 2: 40 mg/kg Bw, 2 times/2 week for 16 weeks, 16 Weeks, p < 0.0001",0/70****
same,Positive fishes (beko cyst) / fishes sampled,"[1]; Test group 2: 40 mg/kg Bw, 2 times/2 week for 16 weeks, 24 Weeks (8 weeks after termination), p < 0.0001, 40 mg/kg",1/50****
same,Positive fishes (beko cyst) / fishes sampled,"[1]; Test group 2: 40 mg/kg Bw, 2 times/2 week for 16 weeks, 24 Weeks (8 weeks after termination), p < 0.0001, listed as albendazole, 40 mg/kg",significant suppression of generation of the beko cyst
same,Positive fishes (beko cyst) / fishes sampled,"[1]; Test group 2: 40 mg/kg Bw, 2 times/2 week for 16 weeks, at administration start time",0/20
same,Infection rate,"beko cyst, beko disease; 10 Days",60%
same,Number of positive fishes,"beko cyst, beko disease; 10 Days, 10 samples",6
same,Number of positive fishes,"beko cyst, beko disease; 21 Days, 63 samples",28
same,Infection rate,"beko cyst, beko disease; 21 Days, p < 0.01, 50 mg/kg",44.4%**
same,Infection rate,"beko cyst, beko disease; 21 Days, p < 0.01, listed as albendazole, 50 mg/kg",44.4%
same,Infection rate,"beko cyst, beko disease; at administration start time",100%
same,Number of positive fishes,"beko cyst, beko disease; at administration start time, 10 samples",10
same,Antimicrobial activity against microsporidia,microsporidia,high antimicrobial activity
same,Positive fishes (beko cyst) / fishes sampled,[2]; 2 week,0/20
same,Positive fishes (beko cyst) / fishes sampled,[2]; 4 Weeks,0/20
same,Positive fishes (beko cyst) / fishes sampled,"[2]; 6 weeks, p < 0.05",0/20*
same,Positive fishes (beko cyst) / fishes sampled,"[2]; 8 weeks, p < 0.01",0/100**
same,Positive fishes (beko cyst) / fishes sampled,"[2]; Total of 2-8 weeks, p < 0.01",0/160**
same,Positive fishes (beko cyst) / fishes sampled,"[2]; Total of 2-8 weeks, p < 0.01, listed as albendazole",no positive was found
same,Positive fishes (beko cyst) / fishes sampled,"[3]; 8 Weeks, p < 0.01, 40 mg/kg",1/50**
same,Positive fishes (beko cyst) / fishes sampled,"[3]; 8 Weeks, p < 0.01, listed as albendazole, 40 mg/kg",significantly suppressed generation of the beko cyst
same,Positive fishes (beko cyst) / fishes sampled,[3]; at administration start time,1/20
same,Increase in the number of deaths and decline in food intake with respect to the control group,[4]; administration period,not recognized
same,Weight of Mojako,[4]; 0 week,7 ± 0.53
same,Weight of Mojako,[4]; 2 Weeks,18 ± 2.38
same,Weight of Mojako,[4]; 4 Weeks,29 ± 4.16
same,Weight of Mojako,[4]; 6 Weeks,51 ± 7.13
same,Body weight compared with the control group,[4]; 8 Weeks,significant increase in body weight
same,Influence on the growth of Mojako,[4]; 8 Weeks,does not exert a harmful influence on the growth
same,Weight of Mojako,[4]; 8 Weeks,73 ± 12.6
same,Infection rate,[5]; [7],0%
same,Negative,[5]; [7],20
same,Positive,[5]; [7],0
same,Infection rate,[5]; [8],0%
same,Negative,[5]; [8],20
same,Positive,[5]; [8],0
same,Negative,[5]; [9],20
same,Positive,[5]; [9],0
same,Infection rate,"[5]; 20 mg/kg Bw oral, 6 times/week, 6 weeks, p < 0.05",0%*
same,Negative,[5]; [10],100
same,Positive,[5]; [10],0
same,Infection rate,"[5]; 20 mg/kg Bw oral, 6 times/week, 8 weeks, p < 0.01",0%**
same,Negative,[5]; [11],40
same,Positive,[5]; [11],0
same,Infection rate,"[5]; 20 mg/kg Bw oral, 6 times/week, 12 Weeks, p < 0.01",0%**
same,Negative,[5]; [12],46
same,Positive,[5]; [12],0
same,Infection rate,"[5]; 20 mg/kg Bw oral, 6 times/week, 16 Weeks, p < 0.01",0%**
same,Negative,[5]; [13],30
same,Positive,[5]; [13],0
same,Infection rate,"[5]; 20 Weeks after start = 4 weeks after termination of 16-week administration, p < 0.01",0%**
same,Negative,[5]; Total until 16 weeks,246
same,Positive,[5]; Total until 16 weeks,0
same,Infection rate,"[5]; Total until 16 weeks, p < 0.01",0%**
same,Time the effect of preventing infection with microsporidia continues after administration was terminated,"[5]; after 16 weeks of 20 mg/kg Bw oral, 6 times/week",at least 4 weeks
same,Number of (positive) individuals showing generation of the beko cyst,[6]; 5 mg/kg Bw oral,3
same,Number of (positive) individuals showing generation of the beko cyst,[6]; 10 mg/kg Bw oral,0
